Laboratory results from US8853277B2, “Nitroxide therapy for the treatment of von Hippel—Lindau disease (VHL) and renal clear cell carcinoma (RCC)” (The United States of America, as represented by the …, priority 2009, dated 2014).

Key:
HIF-2α = test: Western blot of HIF-2α in nuclear proteins of 786-0 RCC cells; type: cell-based, human; settings: 786-0 cells, 5 mM, two to four hours, compared to Tempol-H or growth medium (control)
Procedure: The human sporadic RCC cell line 786-0 was obtained from the American Tissue Culture Collection (ATCC) (Manassas, Va.). This cell line contains a single inactivated VHL allele, produces no VHL protein, is deficient for HIF-la expression, and constitutively expresses HIF-2α. Gnarra et al., Nat. Genet., 7: 85-90 (1994) and Maxwell et al., Nature, 399: 271-275 (1999). Cultures of 786-0 cells were pre-incubated for one hour in KREB's buffer (115 mM NaCl, 5.9 mM KCl, 1.2 mM MgCl2, 1.2 mM NaH2PO4, 1.2 mM Na2SO4, 2.5 mM CaCl2, and 25 mM NaHCO3) at pH 7.4 and with 4.5 g/L of glucose. Cells were then treated for two to four hours with (i) Tempol (5 mM) obtained from Sigma Aldrich (St. Louis, Mo.), (ii) its non-functional hydroxylamine (protonated, reduced) variant: 1,4-dihydroxy-2,2,6,6-tetramethylpiperidine (Tempol-H) (5 mM) (Sigma Aldrich), or (iii) growth medium as a negative control. Cells were harvested, nuclear protein extractions performed, and protein concentrations were measured by BCA assay from Pierce (Rockford, Ill.). Aliquots of extracted nuclear proteins (20 μg) were loaded in a 7.5% polyacrylamide gel and separated by sodium dodecyl sulfate polyacrylamide gel electrophoresis (SDS-PAGE). Proteins were transferred to PVDF membranes, which were then blocked for one to sixteen hours in a solution of 5% dry milk. […]

786-0 (VHL−/−) cells = test: 786-0 (VHL−/−) subcutaneous tumor growth in SCID/BEIGE mice, Tempol in drinking water; type: in vivo; settings: 2 mM in drinking water
Procedure: The tumor inhibitory effect of stable nitroxides were studied in vivo using mice with mutations in the Prkdc gene (SCID, which is associated severe combined immunodeficiency), and bg (BEIGE) gene. Twenty female SCID/BEIGE mice (C.B-Igh-1b/GbmsTac-Prkdc^scid-Lyst^bg N7 (CBSCBG) from Taconic (Hudson, N.Y.)) were injected with about 8 million 786-0 (VHL−/−) cells subcutaneously on the right flank. Starting on the day of injection, Tempol was diluted in PBS and added twice a week to the water bottle feeding a group of ten injected mice. The final concentration of Tempol in water was 2 mM. The control group of ten remaining mice received an equivalent amount of PBS in water twice a week. The volume of the tumors and weight of the mice were recorded once a week for up to 100 days. When the control group tumor volume reached 1 cm^3, tumors of 8 mice maintained as controls were harvested. At the same time, 4 of the animals maintained on Tempol were harvested and fast-frozen or paraffin embedded for further experiments. The average tumor volume as a function of time for each group is depicted in FIG. 2.

786-0 cells (VHL−/−) = test: 786-0 (VHL−/−) subcutaneous tumor growth in SCID/BEIGE mice, Tempol in chow; type: in vivo; settings: 10 mg/g of food, after ten weeks, compared to control mice fed normal chow (P<0.05)
Procedure: Twenty female SCID/BEIGE mice were injected with 786-0 cells (VHL−/−) subcutaneously on the right flank, as described in Example 2. Starting on the day of injection, a control group of ten injected mice were fed standard chow (NIH-031, Zeigler Brothers, Inc. (Gardners, Pa.)) and a group ten injected mice received chow supplemented with Tempol. The Tempol diet supplement was made by a cold press technique from powdered Tempol uniformly mixed with bacon-flavored mouse chow (Bio-Serv Inc. (Frenchtown, N.J.)) providing a Tempol concentration of 10 mg/g of food. Bacon-flavored chow without Tempol was also added to the control diet. The volume of the tumors and the weight of the mice were recorded once a week for more than ten weeks. Tumor volumes as a function of time are depicted in FIG. 3. When the tumor volumes of the control group reached 1 cm^3, the tumors of all mice were harvested and fast-frozen or paraffin embedded for further experiments.

HIF2 α = test: HIF-2α levels in eight other cell lines from patients with VHL mutations; type: cell-based, human; settings: Tempol treatment

CC1(C)CC(O)CC(C)(C)N1[O] [Tempol, 4-hydroxy-2,2,6,6-tetramethylpiperidine-1-oxyl]
HIF-2α levels (HIF-2α): significantly reduced | tumor size when sacrificed at the 80 day time point (786-0 (VHL−/−) cells; 80 days, versus control animals): smaller tumors | average tumor volume as compared to the control group (786-0 (VHL−/−) cells; SCID/BEIGE mice, up to 100 days): markedly lower average tumor volume | tumor size at 100 days (786-0 (VHL−/−) cells; four mice maintained up to 100 days): quite small | tumor growth (786-0 cells (VHL−/−)): reduced by a statistically significant amount | HIF2 α levels (HIF2 α): reduced HIF2 α levels significantly
